Article PMC6025150, “Synthesis, enzyme inhibitory kinetics mechanism and computational study of N-(4-methoxyphenethyl)-N-(substituted)-4-methylbenzenesulfonamides as novel therapeutic agents for Alzheimer’s disease” (PeerJ, 2018)
≈ marks a conversion by molar mass, not a printed value. Where “and” joins values, the source holds several entries; their conditions need not be identical. Identical values can stand only once. Like-named read-outs stand apart in the source and are kept apart here.

Molecular target: T1, acetylcholinesterase (from human erythrocytes) (Homo sapiens, UniProt P22303)
T1 construct: acetylcholinesterase (from human erythrocytes, purchased from Sigma-Aldrich, Seoul, Korea); purchased Sigma-Aldrich, Seoul, Korea; host or cells: human erythrocytes (natural source)
Experiment: biochemical
Set-up: LogIC50 (best-fit value): unit not given here
Settings: for inhibition (Mean): mean of three; for IC50 (best-fit value): unit not given
Procedure: The inhibitory activities of synthesized compounds were determined spectrophotometrically using acetylthiocholine iodide as substrate by following the method of ([Ellman et al., 1961]). Briefly, The assay solution consisted of 180 µL of 50 mM Tris-HCl buffer, pH 7.7, containing (0.1 M sodium chloride and 0.02 M magnesium chloride) and 20 µL of enzyme (AChE, EC 3.1.1.7), acetylcholinesterase (from human erythrocytes, purchased from Sigma-Aldrich, Seoul, Korea) solution (50 U per well); increasing concentrations of test compounds (10 µL) were added to the assay solution and pre incubated for 30 min at 4 °C. After that 5,5′ Dithiobis (2 nitrobenzoic acid) (0.3 mM, 20 µL) and acetylthiocholine iodide (1.8 mM, 20 µL) were added to the reaction mixture and incubated at 37 °C for 10 min, followed by the measurement of absorbance at 412 nm. For non-enzymatic reaction, the assays were carried out with a blank containing all components except acetylcholinesterase. The assay measurements were measured at 412 nm using a micro plate reader (OPTI Max Tunable; Molecular Devices, Sunnyvale, CA, USA) having a wave-length range from 340–850 nm; for 96 well plates. The reaction rates were compared and percent inhibition was calculated due to the presence of tested inhibitors. […] Each concentration was analyzed in three independent experiments run in triplicate. The IC50 values were calculated by nonlinear regression using GraphPad Prism 5.0.
The % of Inhibition of Acetylcholinesterase was calculated as following: Inhibition%=B−S∕B×100. Here, the B and S are the absorbance’s for the blank and samples.

[1] = each of three independent experiments, Raw Data of IC50 sheet, read-out: IC50, single experiment (converted)
[2] = from human erythrocytes, mean ± SEM, read-out: Acetylcholinesterase IC50 ± SEM
[3] = mean converted to uM, Raw Data of IC50 sheet, read-out: IC50
[4] = mean of three experiments, Raw Data of IC50 sheet, read-out: IC50 (Mean) (converted)
[5] = values as printed in abstract and discussion, read-out: acetylcholinesterase IC50
[6] = log(inhibitor) vs. response fit, single run, IC50 Raw Data sheet
[7] = log(inhibitor) vs. response fit, single run, unit inferred, IC50 Raw Data sheet, read-out: IC50 (best-fit value) (converted)
[8] = Conc: 0.0306373 (unit not given), Raw Data of IC50 sheet
[9] = Conc: 0.0612745 (unit not given), Raw Data of IC50 sheet
[10] = Conc: 0.122549 (unit not given), Raw Data of IC50 sheet
[11] = Conc: 0.245098 (unit not given), Raw Data of IC50 sheet
[12] = Conc: 0.490196 (unit not given), Raw Data of IC50 sheet
[13] = Conc: 0.980392 (unit not given), Raw Data of IC50 sheet
[14] = Conc: 1.96078 (unit not given), Raw Data of IC50 sheet
[15] = Conc: 3.92157 (unit not given), Raw Data of IC50 sheet
[16] = Concentration 0.0306373 (unit not given), IC50 Raw Data sheet
[17] = Concentration 0.0612745 (unit not given), IC50 Raw Data sheet
[18] = Concentration 0.122549 (unit not given), IC50 Raw Data sheet
[19] = Concentration 0.245098 (unit not given), IC50 Raw Data sheet
[20] = Concentration 0.490196 (unit not given), IC50 Raw Data sheet
[21] = Concentration 0.980392 (unit not given), IC50 Raw Data sheet
[22] = Concentration 1.96078 (unit not given), IC50 Raw Data sheet
[23] = Concentration 3.92157 (unit not given), IC50 Raw Data sheet
[24] = each of three independent experiments, Raw Data of IC50 sheet
[25] = mean of three experiments, Raw Data of IC50 sheet

T1 sequence (P22303 32-617 isoform P22303-2 limits assumed): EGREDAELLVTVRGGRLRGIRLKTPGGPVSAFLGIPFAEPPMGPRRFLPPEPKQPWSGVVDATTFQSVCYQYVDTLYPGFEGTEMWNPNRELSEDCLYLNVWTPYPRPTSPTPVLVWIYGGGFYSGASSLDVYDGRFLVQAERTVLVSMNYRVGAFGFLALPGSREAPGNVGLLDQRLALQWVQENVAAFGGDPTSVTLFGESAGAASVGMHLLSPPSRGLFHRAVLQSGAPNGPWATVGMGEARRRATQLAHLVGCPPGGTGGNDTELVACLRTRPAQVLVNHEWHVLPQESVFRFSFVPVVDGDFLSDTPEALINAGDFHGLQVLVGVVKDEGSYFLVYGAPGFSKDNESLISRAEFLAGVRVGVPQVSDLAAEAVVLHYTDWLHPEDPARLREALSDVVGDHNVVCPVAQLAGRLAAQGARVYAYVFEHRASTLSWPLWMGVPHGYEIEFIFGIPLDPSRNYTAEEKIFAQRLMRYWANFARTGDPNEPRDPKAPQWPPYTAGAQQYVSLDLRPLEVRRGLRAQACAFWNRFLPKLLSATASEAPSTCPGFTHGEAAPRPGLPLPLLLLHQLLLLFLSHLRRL

SMILES | IC50 [1] | IC50 [2] [µM] | IC50 [3] [µM] | IC50 [4] [µM] | LogIC50 (best-fit value) [6] | inhibition, single experiment [8] | inhibition (Mean) [8] | inhibition, single experiment [9] | inhibition (Mean) [9] | inhibition, single experiment [10] | inhibition (Mean) [10] | inhibition, single experiment [11] | inhibition (Mean) [11] | inhibition, single experiment [12] | inhibition (Mean) [12] | inhibition, single experiment [13] | inhibition (Mean) [13] | inhibition, single experiment [14] | inhibition (Mean) [14] | inhibition, single experiment [15] | also measured
CCN(CCc1ccc(OC)cc1)S(=O)(=O)c1ccc(C)cc1 [Compound 5a, N-Ethyl-N-(4-methoxyphenethyl)-4-methylbenzensulfonamide] | 25 µM and 21 µM and 21.6 µM | 22.5 ± 1.23 | 22.5 | 22.5 |  |  |  |  |  |  |  |  |  |  |  |  |  |  |  |  | 
CCCN(CCc1ccc(OC)cc1)S(=O)(=O)c1ccc(C)cc1 [Compound 5b, N-(4-Methoxyphenethyl)-4-methyl-N-(1-propyl)benzensulfonamide] | 4.77 µM and 3.7 µM and 4.01 µM | 4.16 ± 0.318 | 4.16 | 4.16 |  |  |  |  |  |  |  |  |  |  |  |  |  |  |  |  | IC50 [5]: 0.119 µM
CCCCN(CCc1ccc(OC)cc1)S(=O)(=O)c1ccc(C)cc1 [Compound 5d, N-(1-Butyl)-N-(4-methoxyphenethyl)-4-methylbenzensulfonamide] | 0.0997 µM and 0.134 µM | 0.12 ± 0.0102 | 0.12 | 0.12 | -1.347 |  |  |  |  |  |  |  |  |  |  |  |  |  |  |  | IC50 [7]: 0.125 µM; IC50 [5]: 0.124 ± 0.021 µM
CCCCCN(CCc1ccc(OC)cc1)S(=O)(=O)c1ccc(C)cc1 [Compound 5e, N-(4-Methoxyphenethyl)-4-methyl-N-(1-pentyl)benzensulfonamide] | 0.374 µM and 0.414 µM and 0.406 µM | 0.398 ± 0.0123 | 0.398 | 0.398 | -0.8411 |  |  |  |  |  |  |  |  |  |  |  |  |  |  |  | IC50 [7]: 0.384 µM
CCCCCCCN(CCc1ccc(OC)cc1)S(=O)(=O)c1ccc(C)cc1 [Compound 5f, N-(1-Heptyl)-N-(4-methoxyphenethyl)-4-methylbenzensulfonamide] | 0.474 µM and 0.427 µM | 0.444 ± 0.015 | 0.444 | 0.444 | -0.759 |  |  |  |  |  |  |  |  |  |  |  |  |  |  |  | IC50 [7]: 0.432 µM
COc1ccc(CCN(CCCc2ccccc2)S(=O)(=O)c2ccc(C)cc2)cc1 [Compound 5g, N-(4-Methoxyphenethyl)-4-methyl-N-(3-phenyl-1-propyl) benzensulfonamide] |  | 0.798 ± 0.0138 | 0.798 |  | -0.4313 | 16.111 and 16.8631 | 16.1834 | 30.2326 and 29.5369 | 29.6527 | 32.9175 and 33.3333 | 32.8451 | 43.5555 and 42.1199 | 42.7571 | 49.3413 and 49.9987 | 49.6905 | 59.3325 and 58.7749 | 59.2851 | 66.9964 and 65.1126 | 66.1998 | 74.8965 and 74.0186 | inhibition (Mean) [15]: 74.3992; % inhibition [16]: 15.576%; % inhibition [17]: 32.2845%; % inhibition [18]: 29.1886%; % inhibition [19]: 42.5959%; % inhibition [20]: 49.7315%; % inhibition [21]: 59.7479%; % inhibition [22]: 66.4906%; % inhibition [23]: 74.2824%; IC50, single experiment [24]: 0.3267 µg/mL and 0.3464 µg/mL and 0.341 µg/mL; IC50 (best-fit value) [6]: 0.3704; IC50 (Mean) [25]: 0.338 µg/mL (≈ 0.798 µM)
COc1ccc(CCN(Cc2ccccc2C)S(=O)(=O)c2ccc(C)cc2)cc1 [Compound 5h, N-(4-Methoxyphenethyl)-4-methyl-N-(2-methylbenzyl) benzensulfonamide] |  | 1.011 ± 0.0053 | 1.01 |  | -0.3874 | 41.4444 and 41.0099 | 40.984 | 45.3557 and 45.1011 | 44.9216 | 50.9025 and 51.1299 | 51.0341 | 63.8777 and 63.001 | 63.2456 | 71.1111 and 70.9965 | 70.8325 | 78.3125 and 78.8745 | 78.5659 | 83.9784 and 86.5532 | 85.3051 | 96.8547 and 96.1111 | inhibition (Mean) [15]: 96.3251; % inhibition [16]: 40.4976%; % inhibition [17]: 44.3081%; % inhibition [18]: 51.0699%; % inhibition [19]: 62.858%; % inhibition [20]: 70.3899%; % inhibition [21]: 78.5107%; % inhibition [22]: 85.3837%; % inhibition [23]: 96.0094%; IC50, single experiment [24]: 0.4151 µg/mL and 0.4171 µg/mL; IC50 (best-fit value) [6]: 0.4098; IC50 (Mean) [25]: 0.414 µg/mL (≈ 1.01 µM)
COc1ccc(CCN(Cc2cccc(C)c2)S(=O)(=O)c2ccc(C)cc2)cc1 [Compound 5i, N-(4-Methoxyphenethyl)-4-methyl-N-(3-methylbenzyl) benzensulfonamide] |  | 0.47 ± 0.0109 | 0.47 |  | -0.7362 | 38.1497 and 38.771 | 38.1601 | 45.4473 and 46.02 | 45.6873 | 56.7855 and 56.3378 | 56.078 | 70.5479 and 70.7214 | 71.0257 | 74.2589 and 75.8888 | 75.1591 | 78.1111 and 76.8876 | 77.3479 | 87.2875 and 87.9775 | 87.5273 | 97.778 and 97.9734 | inhibition (Mean) [15]: 97.9676; % inhibition [16]: 37.5596%; % inhibition [17]: 45.5947%; % inhibition [18]: 55.1106%; % inhibition [19]: 71.8079%; % inhibition [20]: 75.3297%; % inhibition [21]: 77.0449%; % inhibition [22]: 87.3169%; % inhibition [23]: 98.1514%; IC50, single experiment [24]: 0.1949 µg/mL and 0.1984 µg/mL; IC50 (best-fit value) [6]: 0.1836; IC50 (Mean) [25]: 0.1923 µg/mL (≈ 0.47 µM)
COc1ccc(CCN(Cc2ccc(C)cc2)S(=O)(=O)c2ccc(C)cc2)cc1 [Compound 5j, N-(4-Methoxyphenethyl)-4-methyl-N-(4-methylbenzyl) benzensulfonamide] |  | 1.11 ± 0.0999 | 1.11 |  | -0.3835 | 17.2222 and 17.1022 | 17.3151 | 31.4199 and 30.0777 | 30.8306 | 36.8749 and 37.0114 | 36.7468 | 48.1258 and 49.804 | 49.2304 | 54.7822 and 55.2287 | 55.0656 | 59.1009 and 58.8888 | 59.2947 | 65.9226 and 65.7652 | 65.7178 | 90.0712 and 89.7746 | inhibition (Mean) [15]: 89.7021; % inhibition [16]: 17.621%; % inhibition [17]: 30.9943%; % inhibition [18]: 36.3541%; % inhibition [19]: 49.7613%; % inhibition [20]: 55.1859%; % inhibition [21]: 59.8945%; % inhibition [22]: 65.4657%; % inhibition [23]: 89.2606%; IC50, single experiment [24]: 0.5355 µg/mL and 0.4119 µg/mL; IC50 (best-fit value) [6]: 0.4136; IC50 (Mean) [25]: 0.4537 µg/mL (≈ 1.11 µM)
